From US20180243273A1, “Composition for Intravesical Administration for Treating Bladder Pain” (priority 2017, published 2018)

Key:
[1] = Preliminary stability study of API intravesical solution; format: physicochemical; conditions: vitamin E TPGS 2%, API 150 μg/mL, no Asc., treated with nitrogen
Description: Two dose strengths were specified: 40 μg/mL and 150 μg/mL API. These concentrations were defined in order to stay below 80% of the saturated solubility values obtained during previous experiments. To enable dissolution of the API, 0.5 wt.-% and 2 wt.-% vitamin E TPGS were used for 40 μg/mL and 150 μg/mL API, respectively (24 h stirring). The compositions were treated with nitrogen and stored at 5° C., 25° C. and 40° C.

[2] = Solubility and impurities of API with solubility enhancing excipients in citrate or phosphate buffer pH 4.5; format: physicochemical; conditions: for solubility: thermodynamic from solid
Description: The solubility of the API was assessed in different buffers together with different excipients. Batches containing different amounts of non-micronized API (i.e. 1 mg, 4 mg, 10 mg or 15 mg) in 100 g buffer were manufactured in order to have saturated solutions. Two different buffers were chosen (citrate buffer and phosphate buffer). […] In order to improve the poor solubility of the API, different solubility enhancing excipients were incorporated in the buffer systems in a concentration range of 0.1-2 wt.-%:
First, buffers were prepared according to Ph. Eur. After pH adjustment, the corresponding excipient was dissolved in the buffer. 1 mg of the API was added to the excipient containing buffer (i.e. 100 g) and stirred. If the API was dissolved completely, another 9 mg were added to a final amount of 10 mg API in […] buffer/excipient mixture. The resulting compositions were stirred overnight prior to filtration through a 0.45 μm filter and analysis and contained 1 mg or 10 mg API, respectively. The following compositions were prepared and the following solubility values were achieved: […]

CN(C)[C@]1(c2cccc(F)c2)CC[C@]2(CC1)c1[nH]c3ccccc3c1CCN2C(=O)/C=C/c1ccccc1 [API, cis-(E)-4-(3-fluorophenyl)-2′,3′,4′,9′-tetrahydro-N,N-dimethyl-2′-(1-oxo-3-phenyl-2-propenyl)-spiro[cyclohexane-1,1′[1H]-pyrido[3,4-b]indol]-4-amine]
Impurities ([1]; 25° C., 3 m): 1.37 % (a/a) | Assay ([1]; 40° C., 1 m): 61.37 % L.S. | Impurities ([1]; 40° C., 1 m): 1.84 % (a/a) | Assay ([1]; 40° C., 2 w): 61.71 % L.S. | Impurities ([1]; 40° C., 2 w): 1.16 % (a/a) | Assay ([1]; 40° C., 3 m): 59.41 % L.S. | Impurities ([1]; 40° C., 3 m): 4.09 % (a/a) | Assay ([1]; t = 0): 61.73 % L.S. | Impurities ([1]; t = 0): 0.44 % (a/a) | Sum of impurities ([2]; citrate buffer pH 4.5, 1 wt.-% Cremophor ® RH 40, 1 mg API in 100 g buffer): 0.92 % (a/a) | Sum of impurities ([2]; citrate buffer pH 4.5, 1 wt.-% Gelucire ® 44/14, 10 mg API in 100 g buffer): 25.91 % (a/a) | Sum of impurities ([2]; citrate buffer pH 4.5, 1 wt.-% Labrasol ®, 10 mg API in 100 g buffer): 19.81 % (a/a) | Sum of impurities ([2]; citrate buffer pH 4.5, 1 wt.-% PEG 400, 10 mg API in 100 g buffer): 0 % (a/a) | Sum of impurities ([2]; citrate buffer pH 4.5, 1 wt.-% Propylene glycol, 10 mg API in 100 g buffer): 0 % (a/a) | Sum of impurities ([2]; citrate buffer pH 4.5, 1 wt.-% SLS, 1 mg API in 100 g buffer): 5.52 % (a/a) | Sum of impurities ([2]; citrate buffer pH 4.5, 1 wt.-% SLS, 10 mg API in 100 g buffer): 3.47 % (a/a) | Sum of impurities ([2]; citrate buffer pH 4.5, 1 wt.-% Solutol ® HS 15, 1 mg API in 100 g buffer): 0.53 % (a/a) | Sum of impurities ([2]; citrate buffer pH 4.5, 1 wt.-% Tween ® 80, 1 mg API in 100 g buffer): 1.1 % (a/a) | Sum of impurities ([2]; citrate buffer pH 4.5, 1 wt.-% vitamin E TPGS, 10 mg API in 100 g buffer): 5.71 % (a/a) | solubility ([2]; citrate buffer, pH 4.5, aqueous with cosolvent or surfactant or cyclodextrin, citrate buffer pH 4.5, 1 wt.-% Cremophor ® RH 40, 1 mg API in 100 g buffer): 7.18 µg/mL | solubility ([2]; citrate buffer, pH 4.5, aqueous with cosolvent or surfactant or cyclodextrin, citrate buffer pH 4.5, 1 wt.-% Gelucire ® 44/14, 10 mg API in 100 g buffer): 34.9 µg/mL | solubility ([2]; citrate buffer, pH 4.5, aqueous with cosolvent or surfactant or cyclodextrin, citrate buffer pH 4.5, 1 wt.-% Labrasol ®, 10 mg API in 100 g buffer): 12.1 µg/mL | solubility ([2]; citrate buffer, pH 4.5, aqueous with cosolvent or surfactant or cyclodextrin, citrate buffer pH 4.5, 1 wt.-% SLS, 1 mg API in 100 g buffer): 79.5 µg/mL | solubility ([2]; citrate buffer, pH 4.5, aqueous with cosolvent or surfactant or cyclodextrin, citrate buffer pH 4.5, 1 wt.-% SLS, 10 mg API in 100 g buffer): 8.19 µg/mL | solubility ([2]; citrate buffer, pH 4.5, aqueous with cosolvent or surfactant or cyclodextrin, citrate buffer pH 4.5, 1 wt.-% Solutol ® HS 15, 1 mg API in 100 g buffer): 7.95 µg/mL | solubility ([2]; citrate buffer, pH 4.5, aqueous with cosolvent or surfactant or cyclodextrin, citrate buffer pH 4.5, 1 wt.-% Tween ® 80, 1 mg API in 100 g buffer): 7.93 µg/mL | solubility ([2]; citrate buffer, pH 4.5, aqueous with cosolvent or surfactant or cyclodextrin, citrate buffer pH 4.5, 1 wt.-% vitamin E TPGS, 10 mg API in 100 g buffer): 76.4 µg/mL | Sum of impurities ([2]; phosphate buffer pH 4.5, 1 wt.-% Cremophor ® RH 40, 1 mg API in 100 g buffer): 0.2 % (a/a) | Sum of impurities ([2]; phosphate buffer pH 4.5, 1 wt.-% Gelucire ® 44/14, 1 mg API in 100 g buffer): 17.48 % (a/a) | Sum of impurities ([2]; phosphate buffer pH 4.5, 1 wt.-% Labrasol ®, 1 mg API in 100 g buffer): 5.91 % (a/a) | Sum of impurities ([2]; phosphate buffer pH 4.5, 1 wt.-% PEG 400, 1 mg API in 100 g buffer): 11.7 % (a/a) | Sum of impurities ([2]; phosphate buffer pH 4.5, 1 wt.-% Propylene glycol, 1 mg API in 100 g buffer): 38.22 % (a/a) | Sum of impurities ([2]; phosphate buffer pH 4.5, 1 wt.-% SLS, 1 mg API in 100 g buffer): 22.55 % (a/a) | Sum of impurities ([2]; phosphate buffer pH 4.5, 1 wt.-% Solutol ® HS 15, 1 mg API in 100 g buffer): 0.2 % (a/a) | Sum of impurities ([2]; phosphate buffer pH 4.5, 1 wt.-% Tween ® 80, 1 mg API in 100 g buffer): 0.52 % (a/a) | Sum of impurities ([2]; phosphate buffer pH 4.5, 1 wt.-% vitamin E TPGS, 10 mg API in 100 g buffer): 1.87 % (a/a) | solubility ([2]; phosphate buffer, pH 4.5, aqueous buffer, phosphate buffer pH 4.5, 1 wt.-% PEG 400, 1 mg API in 100 g buffer): 0.83 µg/mL | solubility ([2]; phosphate buffer, pH 4.5, aqueous buffer, phosphate buffer pH 4.5, 1 wt.-% Propylene glycol, 1 mg API in 100 g buffer): 0.04 µg/mL | solubility ([2]; phosphate buffer, pH 4.5, aqueous with cosolvent or surfactant or cyclodextrin, phosphate buffer pH 4.5, 1 wt.-% Cremophor ® RH 40, 1 mg API in 100 g buffer): 7.67 µg/mL | solubility ([2]; phosphate buffer, pH 4.5, aqueous with cosolvent or surfactant or cyclodextrin, phosphate buffer pH 4.5, 1 wt.-% Gelucire ® 44/14, 1 mg API in 100 g buffer): 53.5 µg/mL | solubility ([2]; phosphate buffer, pH 4.5, aqueous with cosolvent or surfactant or cyclodextrin, phosphate buffer pH 4.5, 1 wt.-% Labrasol ®, 1 mg API in 100 g buffer): 45.8 µg/mL | solubility ([2]; phosphate buffer, pH 4.5, aqueous with cosolvent or surfactant or cyclodextrin, phosphate buffer pH 4.5, 1 wt.-% SLS, 1 mg API in 100 g buffer): 1.68 µg/mL | solubility ([2]; phosphate buffer, pH 4.5, aqueous with cosolvent or surfactant or cyclodextrin, phosphate buffer pH 4.5, 1 wt.-% Solutol ® HS 15, 1 mg API in 100 g buffer): 6.71 µg/mL | solubility ([2]; phosphate buffer, pH 4.5, aqueous with cosolvent or surfactant or cyclodextrin, phosphate buffer pH 4.5, 1 wt.-% Tween ® 80, 1 mg API in 100 g buffer): 8.91 µg/mL | solubility ([2]; phosphate buffer, pH 4.5, aqueous with cosolvent or surfactant or cyclodextrin, phosphate buffer pH 4.5, 1 wt.-% vitamin E TPGS, 10 mg API in 100 g buffer): 256 µg/mL
